According to US20230286995A1, “METABOLICALLY STABLE PYRIMIDINYL DIHYDROQUINOXALINONES AS TUBULIN POLYMERIZATION INHIBITORS” (UNIVERSITY OF TENNESSEE RESEARCH FOUNDATION, priority 2022, published 2023):
Entries after “also recorded” stand apart in the source; their conditions may differ. Read-outs that look alike come from different tables or passages of the source.

Legend:
RPMI-7951 = test: Cytotoxicity assay (MTS, 72 h); type: cell-based; conditions: Homo sapiens, Table 1, read-out: IC50 (nM) Melanoma RPMI-7951
MDA-MB-231 = test: Cytotoxicity assay (MTS, 72 h); type: cell-based; conditions: Homo sapiens
MDA-MB-453 = test: Cytotoxicity assay (MTS, 72 h); type: cell-based, human; conditions: Homo sapiens, MDA-MB-453
MDA-MB-468 = test: Cytotoxicity assay (MTS, 72 h); type: cell-based, human; conditions: Homo sapiens, MDA-MB-468; Table 1; read-out: IC50 (nM) Breast MDA-MB-468
logP = type: physicochemical; conditions: Table 1; method not described
A375/TxR = test: Cytotoxicity assay (MTS, 72 h); type: cell-based; conditions: Homo sapiens, read-out: IC50 ± SEM (nM) A375/TxR
M14/LCC6MDR1 = test: Cytotoxicity assay (MTS, 72 h); type: cell-based; conditions: Homo sapiens, read-out: IC50 ± SEM (nM) M14/LCC6MDR1
MDA-MB-231/TxR = test: Cytotoxicity assay (MTS, 72 h); type: cell-based; conditions: Homo sapiens
MDA-MB-231/VxR = test: Cytotoxicity assay (MTS, 72 h); type: cell-based; conditions: Homo sapiens
DU-145/VxR = test: Cytotoxicity assay (MTS, 72 h); type: cell-based; conditions: Homo sapiens, DU-145, read-out: IC50 ± SEM (nM) DU-145/VXR
PANC-1 = test: Cytotoxicity assay (MTS, 72 h); type: cell-based; conditions: Homo sapiens
Protocol: Mia PaCa-2 and PANC-1 cells were seeded in 96-well plates at 4000 and 5000 cells per well, respectively.
Cytotoxicity Assay. […] Each experiment consisted of four replicates.

[1] = system: human melanoma and breast cancer cell lines; test: Cytotoxicity, all tested cell lines of Table 1; type: cell-based; conditions: Homo sapiens, melanoma and breast lines of Table 1; read-out: IC50 values, range over all tested cell lines
[2] = system: taxane-resistant melanoma, breast, and lung cancer cells; test: Cytotoxicity, regular and taxane-resistant lines of Table 2; type: cell-based; conditions: Homo sapiens
A375/TxR cells [3] = test: Clonogenic assay; type: cell-based, human; conditions: 7 days
Protocol: In case of clonogenic assay, A375/TxR cells were seeded in 6-well plates at very low concentration (1000 cells/well). […] Medium was replaced with fresh drug once during the treatment. Cells were then fixed with cold methanol and stained with 0.5% crystal violet. Colony area density was quantified using the Keyence Hybrid Cell Count module.
Cell proliferation inhibition assay: The cell proliferation inhibitory effects of tested compounds were first determined through MTS assay as previously described. In short, 3000 to 7500 cells were added to a 96-well cell culture plate followed by the treatment of the test compounds (0.1 nM to 3 μM) in quadruplicate after seeding and overnight incubation. After 72 hours of treatment, MTS (Promega) was added to the wells and the absorbance was measured at […] after incubating for 1.5 to 2 h. […] Briefly, A375/TxR cells (1000 cells/well) were treated with growth medium containing 0.5 nM, 1 nM, or 2 nM of 5v and incubated for over 7 days (the incubation medium was changed every 3 days). After fixing and staining with 0.5% crystal violet, the cell colonies were quantified by the Hybrid Counting module of the Keyence BZ-X700 microscope. The assay was performed in triplicate.

A375/TxR cells [4] = test: Wound healing (scratch) assay; type: cell-based, human
Protocol: Scratch-wound assay: The anti-migration effect of 5v was determined by a scratch-wound assay using an IncuCyte S3 live-cell imager as previously reported. After overnight incubation, the monolayers of A375/TxR cells were scratched by a WoundMaker (Essen BioScience) and the cells were treated with 5v (0.5 nM, 1 nM, 2 nM, and 5 nM) for 48 h. The wounds were imaged every 2 h by IncuCyte and the relative wound density was calculated by IncuCyte Scratch Wound Software Module. The assay was performed in quadruplicate.

A375/TxR xenografts = test: In vivo A375/TxR melanoma xenograft model; design: species or system NSG mice; conditions: for decrease in tumor weight vs vehicle group / tumor reduction / tumor growth inhibition vs control: 2 times per week
[5] = system: MDA-MB-231 BrM2 brain metastases; test: MDA-MB-231-BrM2 brain metastasis model, survival study (Experiment 2); type: in vivo, NSG mice
in vitro [6] = conditions: human, liver microsomes
in vitro [7] = conditions: mouse, liver microsomes
[8] = Microsomal stability assay; conditions: Table 3; liver microsomes; mean (% CV)
[9] = Microsomal stability assay; conditions: Table 3; liver microsomes; mean (% CV); remark: listed apart in the source
M14 = test: Cytotoxicity assay (MTS, 72 h); conditions: Homo sapiens
[10] = MDA-MB-231, read-out: IC50 in MDA-MB-231 parental line
[11] = MDA-MB-231, read-out: IC50 ± SEM (nM) MDA-MB-231, Table 2
[12] = Table 1, read-out: IC50 (nM) Breast MDA-MB-453
[13] = MDA-MB-231, read-out: IC50 ± SEM (nM) MDA-MB-231/VXR
[14] = taxane-resistant melanoma, breast, and lung cancer cells, read-out: IC50 values, range against taxane-resistant cells
[15] = M14, read-out: IC50 (nM) Melanoma M14
[16] = M14, read-out: IC50 ± SEM (nM) M14
[17] = H&E and anti-human mitochondria IHC

Compound: COc1ccc2c(c1)NC(=O)CN2c1nc(C)nc2c1CCC2 [Compound 5m, 7-methoxy-4-(2-methyl-6,7-dihydro-5H-cyclopenta[d]pyrimidin-4-yl)-3,4-dihydroquinoxalin-2(1H)-one]
- IC50 (RPMI-7951): 1.5 ± 0.4 nM
- IC50 (MDA-MB-231; [10]): 1 to 2.2 nM
- IC50 (MDA-MB-231; [11]): 1.7 ± 0.4 nM
- IC50 (MDA-MB-453; [12]): 0.5 ± 0.1 nM
- IC50 (MDA-MB-468): 1.8 ± 0.4 nM
- logP (logP): 2.96
- IC50 (A375/TxR): 1.1 nM
- IC50 (M14/LCC6MDR1): 1.4 ± 0.3 nM
- IC50 (MDA-MB-231/TxR; read-out: IC50 ± SEM (nM) MDA-MB-231/TxR): 1.5 ± 0.3 nM
- IC50 (MDA-MB-231/VxR; MDA-MB-231, 72 h, read-out: IC50 in Compound 17ya resistant MDA-MD-231/VxR cells): 1.2 to 2.9 nM
- IC50 (MDA-MB-231/VxR; [13]): 2.3 ± 0.4 nM
- IC50 (DU-145/VxR): 3.7 ± 0.6 nM
- IC50 (PANC-1; Example 7, FIG. 20, read-out: calculated IC50, PANC-1 cells): 2.7 nM
- IC50 [1]: 0.4 to 26 nM
- IC50 ([2]; melanoma, breast and lung cancer cell lines, read-out: IC50 values, range against regular and paclitaxel-resistant lines): 1 to 5 nM
- IC50 [2, 14]: 0.3 to 5 nM
- colony formation of A375/TxR cells (A375/TxR cells [3]): completely inhibited the colony formation at high dose, i.e., 2 nM
- migration of A375/TxR cells (A375/TxR cells [4]): markedly inhibited the migration of A375/TxR cells
- decrease of final tumor volume vs vehicle (A375/TxR xenografts; 2.5 mg/kg IV, 7 doses within 24 days): 64.6%
- median survival ([5]; 1.0 mg/kg IV twice per week, vehicle 25 days): 36.5 days
- body weight ([5]; Experiment 2): gained weight through day 21 of dosing
- survival of all treated mice ([5]; all vehicle mice deceased by 30 days): > 30 days
- increased metastasis (photon flux) in vehicle vs 5m treated representative mouse ([5]; day 28, n=1): 6.7 fold
- metastatic progression in the brain, in vivo photon flux ([5]; mouse, in vivo): delayed metastatic progression in the brain
- day until which representative treated mouse lived ([5]; vehicle mouse died on day 28): 35 days
- CLint scaled at 1 μg/mL (in vitro [6]): 13 mL/min/kg
- CLint scaled at 1 μg/mL (in vitro [7]): 48 mL/min/kg
- Metabolic stability in rat t1/2 [8]: 8.0 min
- Metabolic stability in rat t1/2 (min) [8]: 7.97 (0.7) min
- Metabolic stability in mouse t1/2 [9]: 14.4 min
- IC50 (M14; [15]): 1.4 ± 0.4 nM
- IC50 (M14; [16]): 1.3 ± 0.2 nM

Compound: CCNc1nc2c(c(N3CC(=O)Nc4cc(OC)ccc43)n1)CCC2 [Compound 5v, 4-(2-(ethylamino)-6,7-dihydro-5H-cyclopenta[d]pyrimidin-4-yl)-7-methoxy-3,4-dihydroquinoxalin-2(1H)-one]
- IC50 (RPMI-7951): 0.5 ± 0.1 nM
- IC50 (MDA-MB-231; MDA-MB-231, read-out: IC50 (nM) Breast Cancer MDA-MB-231, Table 6): 2.6 ± 0.5 nM
- IC50 (MDA-MB-231; MDA-MB-231, read-out: IC50 (nM) Breast MDA-MB-231, Table 1): 0.7 ± 0.1 nM
- IC50 (MDA-MB-231; [10]): 1 to 2.2 nM
- IC50 (MDA-MB-231; [11]): 1 ± 0.2 nM
- IC50 (MDA-MB-453; [12]): 0.43 ± 0.1 nM
- IC50 (MDA-MB-453; Table 6, read-out: IC50 (nM) Breast Cancer MDA-MB-453): 1.3 ± 0.5 nM
- IC50 (MDA-MB-468): 0.8 ± 0.1 nM
- logP (logP): 2.39
- IC50 (A375/TxR; Table 2, paclitaxel-resistant): 0.3 ± 0.03 nM
- IC50 (M14/LCC6MDR1; Table 2, multidrug-resistant): 0.3 ± 0.03 nM
- IC50 (MDA-MB-231/TxR; read-out: IC50 ± SEM (nM) MDA-MB-231/TxR, Table 2, paclitaxel-resistant): 0.6 ± 0.1 nM
- IC50 (MDA-MB-231/VxR; [13]): 1.2 ± 0.3 nM
- IC50 (DU-145/VxR): 1 ± 0.1 nM
- IC50 (PANC-1; Table 6, read-out: IC50 (nM) Pancreatic cancer PANC-1): 3.7 ± 0.7 nM
- IC50 [1]: 0.4 to 26 nM
- IC50 [2, 14]: 0.3 to 5 nM
- colony formation of A375/TxR cells (A375/TxR cells [3]): inhibit the proliferation of A375/TxR cell colonies in a concentration-dependent manner
- migration of A375/TxR cells (A375/TxR cells [4]): remarkable potency in inhibiting the cell migration of A375/TxR cells
- decrease in tumor weight vs vehicle group (A375/TxR xenografts; 2 mg/kg IV): 47.4%
- tumor reduction / tumor growth inhibition vs control (A375/TxR xenografts; 2 mg/kg IV): 62.3%
- toxicity to major organs (heart, kidney, spleen), H&E (A375/TxR xenografts; 2 mg/kg or 4 mg/kg, three weeks): no obvious damage to the major organs; also recorded: no toxicity to major organs
- cleaved caspase-3 in tumors, IHC (A375/TxR xenografts; 2 mg/kg, 4 mg/kg): significantly increased the proportion of cleaved caspase-3 positive cells
- decrease in tumor weight vs vehicle group (A375/TxR xenografts; 4 mg/kg IV): 59.9%
- tumor reduction / tumor growth inhibition vs control (A375/TxR xenografts; 4 mg/kg IV): 76.6%
- Ki67 and CD31 expression in tumors, IHC (A375/TxR xenografts; 2 and 4 mg/kg): significantly decreased
- spontaneous liver metastasis (A375/TxR xenografts; [17]): significant inhibition of lung or liver metastasis
- spontaneous lung metastasis (A375/TxR xenografts; [17]): significant inhibition of lung or liver metastasis
- mouse body weight during therapy (A375/TxR xenografts; all doses tested): no body weight loss observed
- tumor necrosis, H&E (A375/TxR xenografts; mouse, in vivo): more necrotic cells in 5v-treated tumors
- half-life at 1 μg/mL (in vitro [6]): 24.7 min
- microsomal CLint at 1 μg/mL (in vitro [6]): 28.1 µL/min/mg
- half-life at 1 μg/mL (in vitro [7]): 6.33 min
- microsomal CLint at 1 μg/mL (in vitro [7]): 109 µL/min/mg
- Metabolic stability in rat t1/2 [8]: 3.6 min
- IC50 (M14; M14, read-out: IC50 (nM) Melanoma Cancer M14): 1.5 ± 0.3 nM
- IC50 (M14; [15]): 0.6 ± 0.1 nM
- IC50 (M14; [16]): 0.3 ± 0.04 nM
